The source of these data is patent US20080293696A1, “2-Aminoarylcarboxamides Useful as Cancer Chemotherapeutic Agents” (Bayer Pharmaceuticals Corporation, priority 2004, published 2008).

The structures appear in SMILES notation. Where a name gives a salt, the structure may show the parent alone.

The assay has as its system PAKT/PKB (p-(S473) AKT) in H209 small cell lung carcinoma cells stimulated with Stem Cell Factor. As to the kind of experiment: PAKT/PKB Cytoblot Assay with H209 cells (SCF-stimulated p-(S473) AKT). The format is cell-based. Conditions: Homo sapiens, NCI-H209, compound 1 hour, SCF 25 ng/mL 5 minutes. An outline of the steps:
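H209 SCLC cells kept overnight in RPMI with 0.1% BSA were pretreated 1 h at 37 °C with compound (0.01–10 μM final), then stimulated with SCF 25 ng/mL for 5 min. After formaldehyde/methanol fixation, p-(S473) AKT was detected in-cell with HRP secondary and ECL chemiluminescence, and IC50 was derived.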

[1] abbreviates: group: between 500 nM and 1 μM (units in value).

On to `CNC(=O)c1cc(CNc2ccc(F)cc2C(=O)Nc2ccc3c(c2)OC(F)(F)O3)ccn1` [Example 31, 4-{[(2-{[(2,2-difluoro-1,3-benzodioxol-5-yl)amino]carbonyl}-4-fluorophenyl)amino]methyl}-N-methylpyridine-2-carboxamide], for which the IC50 (group: less than 500 nM) is below 500 nM.

For the setting “group: less than 500 nM”, `N#Cc1cc(CNc2ccccc2C(=O)Nc2ccc3c(c2)C(F)(F)OC(F)(F)O3)ccn1` [Example 23, 2-{[(2-cyanopyridin-4-yl)methyl]amino}-N-(2,2,4,4-tetrafluoro-4H-1,3-benzodioxin-6-yl)benzamide] gave an IC50 below 500 nM.

Turning to `COCCNc1cc(CNc2ccccc2C(=O)Nc2ccc3c(c2)OC(F)(F)O3)ccn1` [Example 135, N-(2,2-difluoro-1,3-benzodioxol-5-yl)-2-[({2-[(2-methoxyethyl)amino]pyridin-4-yl}methyl)amino]benzamide trifluoroacetate], where the note is “group: less than 500 nM”, the half-maximal inhibitory concentration (IC50) is below 500 nM.

`N#Cc1cc(CNc2ccc(F)cc2C(=O)Nc2ccc3c(c2)OC(F)(F)C(F)(F)O3)ccn1` [Example 27, 2-{[(2-cyanopyridin-4-yl)methyl]amino}-5-fluoro-N-(2,2,3,3-tetrafluoro-2,3-dihydro-1,4-benzodioxin-6-yl)benzamide] registered an IC50 (group: between 1 and 3 μM) of 1000 to 3000 nM.

`CC1(C)OCC(CNC(=O)c2cc(CNc3ccccc3C(=O)Nc3ccc4c(c3)OC(F)(F)O4)ccn2)O1` (centres unmarked) [Example 78, 4-{[(2-{[(2,2-Difluoro-1,3-benzodioxol-5-yl)amino]carbonyl}phenyl)amino]methyl}-N-[(2,2-dimethyl-1,3-dioxolan-4-yl)methyl]pyridine-2-carboxamide] yielded an IC50 under setting [1] of 500 to 1000 nM.

`CCN(CC)CCCC(C)NC(=O)c1cc(CNc2ccccc2C(=O)Nc2ccc3c(c2)OC(F)(F)O3)ccn1` (centres unmarked) [Example 108, N-[4-(diethylamino)-1-methylbutyl]-4-{[(2-{[(2,2-difluoro-1,3-benzodioxol-5-yl)amino]carbonyl}phenyl)amino]methyl}pyridine-2-carboxamide]: the IC50 under setting [1] was 500 to 1000 nM.

As to `CC(C)(CO)CNc1cc(CNc2ccccc2C(=O)Nc2ccc3c(c2)OC(F)(F)O3)ccn1` [Example 141, N-(2,2-difluoro-1,3-benzodioxol-5-yl)-2-[({2-[(3-hydroxy-2,2-dimethylpropyl)amino]pyridin-4-yl}methyl)amino]benzamide trifluoroacetate(salt)], the IC50 (group: less than 500 nM) is below 500 nM.

In turn, `O=C(NCc1ccccc1)Nc1cc(CNc2ccccc2C(=O)Nc2ccc3c(c2)OC(F)(F)O3)ccn1` [Example 172, 2-{[(2-{[(benzylamino)carbonyl]amino}pyridin-4-yl)methyl]amino]-N-(2,2-difluoro-1,3-benzodioxol-5-yl)benzamide] gave an IC50 under setting [1] of 500 to 1000 nM.

Consider `O=C(Nc1ccc2c(c1)OC(F)(F)O2)c1cc(F)ccc1NCc1ccncc1` [Example 20, N-(2,2-difluoro-1,3-benzodioxol-5-yl)-5-fluoro-2-[(pyridin-4-ylmethyl)amino]benzamide], for which, where the note is “group: less than 500 nM”, the concentration for half-maximal inhibition (IC50) was below 500 nM.

`COc1ccc(NCc2ccncc2)c(C(=O)Nc2ccc3c(c2)OC(F)(F)C(F)(F)O3)c1` [Example 1, 5-methoxy-2-[(pyridin-4-ylmethyl)amino]-N-(2,2,3,3-tetrafluoro-2,3-dihydro-1,4-benzodioxin-6-yl)benzamide] yielded an IC50 (group: between 1 and 3 μM) of 1000 to 3000 nM.

`O=C(Nc1ccc2c(c1)OC(F)(F)O2)c1ccccc1NCc1ccnc(NCCc2c[nH]cn2)c1` [Example 147, N-(2,2-difluoro-1,3-benzodioxol-5-yl)-2-{[(2-{[2-(1H-imidazol-4-yl)ethyl]amino}pyridin-4-yl)methyl]amino}benzamidebis(trifluoroacetate)] yielded an IC50 (group: less than 500 nM) below 500 nM.

Consider `COc1ccc(OCC(O)CNC(=O)c2cc(CNc3ccccc3C(=O)Nc3ccc4c(c3)OC(F)(F)O4)ccn2)cc1` (centres unmarked) [Example 132, 4-{[(2-{[(2,2-difluoro-1,3-benzodioxol-5-yl)amino]carbonyl}phenyl)amino]methyl}-N-[2-hydroxy-3-(4-methoxyphenoxy)propyl]pyridine-2-carboxamide], for which the half-maximal inhibitory concentration (IC50) (group: less than 500 nM) was below 500 nM.

With `CSCC[C@@H](CO)NC(=O)c1cc(CNc2ccccc2C(=O)Nc2ccc3c(c2)OC(F)(F)O3)ccn1` [Example 127, 4-{[(2-{[(2,2-difluoro-1,3-benzodioxol-5-yl)amino]carbonyl}phenyl)amino]methyl}-N-[(1S)-1-(hydroxymethyl)-3-(methylthio)propyl]pyridine-2-carboxamide], the 50% inhibitory concentration (IC50) (group: between 1 and 3 μM) lay in the range of 1000 to 3000 nM.

In the case of `COc1cccc(NCc2ccncc2)c1C(=O)Nc1ccc2c(c1)OC(F)(F)O2` [Example 11, N-(2,2-difluoro-1,3-benzodioxol-5-yl)-2-methoxy-6-[(pyridin-4-ylmethyl)amino]benzamide], the IC50 (group: less than 500 nM) is below 500 nM.

As to `O=C(Nc1ccc2c(c1)OC(F)(F)C(F)(F)O2)c1cc(F)ccc1NCc1ccncc1` [Example 19, 5-fluoro-2-[(pyridin-4-ylmethyl)amino]-N-(2,2,3,3-tetrafluoro-2,3-dihydro-1,4-benzodioxin-6-yl)benzamide], the IC50 (group: less than 500 nM) is below 500 nM.

The compound `O=C(Nc1ccc2c(c1)OC(F)(F)O2)c1ccccc1NCc1ccnc(NCC(O)CO)c1` (centres unmarked) [Example 149, N-(2,2-difluoro-1,3-benzodioxol-5-yl)-2-[({2-[(2,3-dihydroxypropyl)amino]pyridin-4-yl}methyl)amino]benzamidetrifluoroacetate (salt)] showed an IC50 (group: less than 500 nM) below 500 nM.

Turning to `CN(C)CC(C)(C)CNC(=O)c1cc(CNc2ccccc2C(=O)Nc2ccc3c(c2)OC(F)(F)O3)ccn1` [Example 121, 4-{[(2-{[(2,2-difluoro-1,3-benzodioxol-5-yl)amino]carbonyl}phenyl)amino]methyl}-N-[3-(dimethylamino)-2,2-dimethylpropyl]pyridine-2-carboxamide], the IC50 (group: between 1 and 3 μM) lay within 1000 to 3000 nM.

Turning to `COc1cccc(NCc2ccncc2)c1C(=O)Nc1ccc2c(c1)C(F)(F)OC(F)(F)O2` [Example 10, 2-methoxy-6-[(pyridin-4-ylmethyl)amino]-N-(2,2,4,4-tetrafluoro-4H-1,3-benzodioxin-6-yl)benzamide], the 50% inhibitory concentration (IC50) (group: less than 500 nM) was below 500 nM.

For the compound `CCNC(=O)c1cc(CNc2ccc(F)cc2C(=O)Nc2ccc3c(c2)OC(F)(F)O3)ccn1` [Example 46, 4-{[(2-{[(2,2-difluoro-1,3-benzodioxol-5-yl)amino]carbonyl}-4-fluorophenyl)amino]methyl}-N-ethylpyridine-2-carboxamide], for the setting “group: less than 500 nM”, the IC50 was below 500 nM.

On to `O=C(NCCc1cnc[nH]1)c1cc(CNc2ccccc2C(=O)Nc2ccc3c(c2)OC(F)(F)O3)ccn1` [Example 94, 4-{[(2-{[(2,2-difluoro-1,3-benzodioxol-5-yl)amino]carbonyl}phenyl)amino]methyl}-N-[2-(1H-imidazol-5-yl)ethyl]pyridine-2-carboxamide], for which the IC50 under setting [1] lay within 500 to 1000 nM.

Turning to `CNC(=O)c1cc(CNc2ccc(F)cc2C(=O)Nc2ccc3c(c2)OC(F)(F)C(F)(F)O3)ccn1` [Example 34, 4-{[(4-fluoro-2-{[(2,2,3,3-tetrafluoro-2,3-dihydro-1,4-benzodioxin-6-yl)amino]carbonyl}phenyl)amino]methyl}-N-methylpyridine-2-carboxamide], the half-inhibitory concentration (IC50) (group: less than 500 nM) was below 500 nM.

Under “group: less than 500 nM”, `NC(=O)CCNC(=O)c1cc(CNc2ccccc2C(=O)Nc2ccc3c(c2)OC(F)(F)O3)ccn1` [Example 95, N-(3-amino-3-oxopropyl)-4-{[(2{[(2,2-difluoro-1,3-benzodioxol-5-yl)amino]carbonyl}phenyl)amino]methyl}pyridine-2-carboxamide] came in with an IC50 below 500 nM.

As for `O=C(NCc1ccco1)Nc1cc(CNc2ccccc2C(=O)Nc2ccc3c(c2)OC(F)(F)O3)ccn1` [Example 173, N-(2,2-difluoro-1,3-benzodioxol-5-yl)-2-({[2-({[(2-furylmethyl)amino]carbonyl}amino)pyridin-4-yl]methyl}amino)benzamide], the IC50 (group: less than 500 nM) is below 500 nM.

On to `O=C(Nc1ccc2c(c1)OC(F)(F)O2)c1cccnc1NCc1ccncc1` [Example 15, N-(2,2-difluoro-1,3-benzodioxol-5-yl)-2-[(pyridin-4-ylmethyl)amino]nicotinamide], for which the IC50 (group: less than 500 nM) is below 500 nM.

The compound `NCC(O)CNc1cc(CNc2ccccc2C(=O)Nc2ccc3c(c2)OC(F)(F)O3)ccn1` (centres unmarked) [Example 142, 2-[({2-[(3-amino-2-hydroxypropyl)amino]pyridin-4-yl}methyl)amino]-N-(2,2-difluoro-1,3-benzodioxol-5-yl)benzamidebis(trifluoroacetate)(salt)] displayed an IC50 under setting [1] of 500 to 1000 nM.

For the compound `O=C(NCCCN1CCCCC1)c1cc(CNc2ccccc2C(=O)Nc2ccc3c(c2)OC(F)(F)O3)ccn1` [Example 98, 4-{[(2-{[(2,2-difluoro-1,3-benzodioxol-5-yl)amino]carbonyl}phenyl)amino]methyl}-N-(3-piperidin-1-ylpropyl)pyridine-2-carboxamide], the IC50 under setting [1] fell in the range of 500 to 1000 nM.

`CC(=O)OCC(=O)Nc1cc(CNc2ccccc2C(=O)Nc2ccc3c(c2)OC(F)(F)O3)ccn1` [Example 156, 2-[(4-{[(2-{[(2,2-difluoro-1,3-benzodioxol-5-yl)amino]carbonyl}phenyl)amino]methyl}pyridin-2-yl)aminol-2-oxoethyl acetate] displayed an IC50 (group: less than 500 nM) below 500 nM.

On to `CCOc1ccc(CCNC(=O)c2cc(CNc3ccccc3C(=O)Nc3ccc4c(c3)OC(F)(F)O4)ccn2)cc1OC` [Example 125, 4-{[(2-{[(2,2-difluoro-1,3-benzodioxol-5-yl)amino]carbonyl}phenyl)amino]methyl}-N-[2-(4-ethoxy-3-methoxyphenyl)ethyl]pyridine-2-carboxamide], for which the IC50 (group: between 1 and 3 μM) was 1000 to 3000 nM.

In turn, `CCCCN(CCCC)CCCNC(=O)c1cc(CNc2ccccc2C(=O)Nc2ccc3c(c2)OC(F)(F)O3)ccn1` [Example 105, N-[3-(dibutylamino)propyl]-4-{[(2-{[(2,2-difluoro-1,3-benzodioxol-5-yl)amino]carbonyl}phenyl)amino]methyl}pyridine-2-carboxamide] showed an IC50 under setting [1] of 500 to 1000 nM.

For orientation: IC50 means the concentration needed to halve the response being measured.
